Measured values published in paper PMC11678373 (Pharmaceutics, 2024).
“And” between values parts separate entries of the source, which are not always exact repeats. Equal values may be shown once. Read-outs that look alike come from different tables or passages of the source.

Key:
CYP3A4 = settings: cited from earlier work
[1] = Pharmacokinetics of REG, M-2 and M-5 in rats after single oral REG with or without OLA; format: in vivo, male Wistar rats
Method: (§1) Healthy, 14-week-old adult male Wistar rats purchased from the Anima Sp. z o. o. SK and ViVARI s.c. (Warszawa, Poland) were used in the study. The animals were housed for one week in a temperature- and humidity-controlled room with a 12-h light/dark cycle and fed a standard diet with free access to fresh water.
(§2) This reduced the number of animals included in the experiment, which is consistent with the 3R concept. The same drugs (same manufacturer, same dose) were administered in the study group IREG+OLA, but from different batches than in the control groups. No other experimental conditions were changed.
(§3) The samples were centrifuged (2880 g, 10 min at 4 °C), and the plasma was stored at −80 °C until analyzed.
A Cortecs UPLC C18 column (2.1 × 50 mm, 1.6 μm) was used in combination with a VanGuard Acquity UPLC BEH C18 pre-column (2.1 × 5 mm, 3/Pk, Waters Corporation). The injection volume was 5 μL, the autosampler temperature was 4 °C, and the column temperature was 40 °C. The composition of mobile phase A was 0.1% aqueous formic acid solution (v/v), and phase B was acetonitrile/methanol and 0.1% aqueous formic acid solution in a ratio of 1:3 (v/v). The total run time was 5 min. The gradient was as follows: 0–0.5 min with 10% B; 0.5–3 min, 95% B; 3–4 min, 95% B; 4–4.1 min, 10% B; 4.1–5 min, 10% B. The flow rate was 0.4 mL/min. Multiple reaction monitoring (MRM) experiments using positive electrospray ionization (ESI) were performed to analyze the samples.
The following settings of the Xevo TQ-S micro mass spectrometer were used: source temperature 150 °C, desolvation temperature 600 °C, nitrogen gas flow 900 L/h, capillary voltage 3.6 kV.
(§4) The values of the pharmacokinetic parameters of OLA, REG, and M-2 and M-5 were determined by non-compartmental analysis with linear interpolation. PKanalix 2023R1 software (Lixoft, Antony, France) was used to calculate the elimination rate constant (kel), the absorption rate constant (ka), the half-life in the elimination phase (t1/2), the area under the concentration–time curve from zero to the last measurable concentration (AUC0–t), the area under the plasma concentration–time curve from zero to infinity (AUC0–∞), the apparent plasma drug clearance (Cl/F), and the apparent volume of distribution (Vd/F). The maximum plasma concentration (Cmax) and the time to reach the Cmax (tmax) were obtained directly from the measured values. All these parameters were presented as arithmetic mean ± standard deviation (SD) and subjected to statistical analysis.

[2] = single oral REG 20 mg/kg b.w. alone (IIREG control, n = 8), mean ± SD, adapted from previous project ref 39, cited from earlier work; for AUC0–t / AUC0–∞: metabolite in plasma
[3] = Long-term stability in plasma (bioanalytical validation); format: physicochemical, rat; settings: plasma QC samples, −20 °C storage
Method: The concentrations were diluted in five replicates.
Short-term and long-term stability were tested at −20 °C storage conditions and ambient temperature at processing conditions. For the short term, three cycles of freezing and thawing within three days were applied.
All met ICH acceptance criteria.

CYP2C9 = settings: cited from earlier work
CYP2D6 = settings: cited from earlier work
CYP2C8 = settings: cited from earlier work
P-gp vesicles = test system: P-gp vesicles; parameters: method as in Deng et al. 36; settings: ref Deng et al. 36; cited from earlier work
[4] = OLA; single oral OLA 100 mg/kg b.w. alone (IIIOLA control, n = 8); mean ± SD; adapted from previous project ref 40; cited from earlier work
P-gp = test system: P-gp; parameters: method as in earlier work; settings: cited from earlier work
[5] = Pharmacokinetics of OLA in rats after single oral OLA with or without REG; format: in vivo, male Wistar rats
Method: as §1, §2, §3
OLA in animal plasma samples was quantified using an Acquity 1-class PLUS ultra-high performance liquid chromatograph coupled to a Xevo TQ-S micro triple quadrupole mass spectrometer (Waters Corporation, 34 Maple Street, Milford, MA, USA). A Cortecs UPLC C18 column (2.1 × 50 mm, 1.6 µm, Waters Corporation, 34 Maple Street, Milford, MA, USA) was used for the chromatographic separation. The column temperature and injection volume were set at 40 °C and 1 µL, respectively. The mobile phase consisted of acetonitrile (eluent A) and 2 mM ammonium acetate in water (eluent B) with 0.1% 98–100% formic acid. The flow rate was kept at 0.3 mL/min. The elution gradient was as follows: 0–3 min, 5% A; 4–5 min, 95% A; 3–5 min, linear from 5% to 95% A; 5–6 min, linear from 95% to 5% A. The mass spectrometer was operated in multiple reaction monitoring mode. Two transitions were monitored for OLA and OLA-d4 as an internal standard (IS): m/z 435.1→367.1 and 435.1→281.0 (qualifier transition) for OLA and m/z 439.1→367.1 and 439.1→281.0 for IS.
as §4

CYP3A4/5 = test system: CYP3A4/5; parameters: method as in PMID 28657402, PMID 27684210; settings: cited from earlier work
BCRP = test system: BCRP; parameters: method as in earlier work; settings: cited from earlier work
[6] = cited from earlier work
P-glycoprotein = settings: cited from earlier work
[7] = parameters: method as in Jin et al. 37; settings: ref Jin et al. 37, cited from earlier work; for predicted AUC increase for (S)- and/or (R)-warfarin: via CYP inhibition
CYP2B6 = settings: cited from earlier work
CYP3A = test system: CYP3A; parameters: method as in Jin et al. 37; settings: competitive inhibition; ref Jin et al. 37; cited from earlier work
CYP2C19 = settings: cited from earlier work
[8] = cited from earlier work; remark: listed apart in the source
[9] = co-administration of OLA and metformin in rats; cited from earlier work

CNC(=O)c1cc(Oc2ccc(NC(=O)Nc3ccc(Cl)c(C(F)(F)F)c3)c(F)c2)cc[n+]1[O-] [M-2, REG-N-oxide]
R1 value (CYP3A4): > 1.1
AUC0–t of metabolite, times higher during combined administration of OLA and REG ([1]; IREG+OLA vs. IIREG control): 8.86 fold
Cmax of metabolite, times higher during combined administration of OLA and REG ([1]; IREG+OLA vs. IIREG control): 7.22 fold
AUC0–t [2]: 9615.36 ± 2275.41 (23.7) ng × h/mL
AUC0–∞ [2]: 11,469.93 ± 2133.05 (18.6) ng × h/mL
stable in plasma (long-term test) [3]: ≥ 180 days
R1 value (CYP2C9): > 1.1
R1 value (CYP2D6): > 1.1
R1 value (CYP2C8): > 1.1

NC(=O)c1cc(Oc2ccc(NC(=O)Nc3ccc(Cl)c(C(F)(F)F)c3)c(F)c2)cc[n+]1[O-] [M-5, N-desmethyl-REG-N-oxide]
AUC0–t of metabolite, times higher during combined administration of OLA and REG ([1]; IREG+OLA vs. IIREG control): 17.83 fold
AUC0–∞ of metabolite, times higher during combined administration of OLA and REG ([1]; IREG+OLA vs. IIREG control): 18.82 fold
Cmax of metabolite, times higher during combined administration of OLA and REG ([1]; IREG+OLA vs. IIREG control): 16.32 fold
AUC0–t [2]: 803.19 ± 177.02 (22.0) ng × h/mL
AUC0–∞ [2]: 847.88 ± 178.97 (21.1) ng × h/mL
stable in plasma (long-term test) [3]: ≥ 180 days
R1 value (CYP2C8): > 1.1

O=C(c1cc(Cc2n[nH]c(=O)c3ccccc23)ccc1F)N1CCN(C(=O)C2CC2)CC1 [OLA, Olaparib]
inhibition of atorvastatin transport (P-gp vesicles): weak inhibitor
inhibitor class as perpetrator towards REG, from AUC ratio ([1]; rat model, AUC ratio 3.39): moderate inhibitor
AUC0–t [4]: 28.28 ± 28.16 (99.6) µg × h/mL
AUC0–∞ [4]: 28.58 ± 28.31 (99.1) µg × h/mL
Cl/F [4]: 7.84 ± 15.21 (193.9) L/h
Cmax [4]: 8.72 ± 6.80 (78.0) µg/mL
t0.5 [4]: 4.79 ± 6.06 (126.5) h
tmax [4]: 1.16 ± 0.92 (78.9) h
IC50 (P-gp): > 10 µM
increase of AUC0–t of OLA after administration of OLA with REG ([5]; IREG+OLA vs. IIIOLA control): 3.4 fold
increase of AUC0–t of OLA by REG ([5]; IREG+OLA vs. IIIOLA control): 241.7%
increase of AUC0–∞ of OLA after administration of OLA with REG ([5]; IREG+OLA vs. IIIOLA control): 3.4 fold
increase of AUC0–∞ of OLA by REG ([5]; IREG+OLA vs. IIIOLA control): 240.6%
increase of Cmax of OLA after administration of OLA with REG ([5]; IREG+OLA vs. IIIOLA control): 2.0 fold
increase of Cmax of OLA by REG ([5]; IREG+OLA vs. IIIOLA control): 104.9%
t0.5 ([5]; OLA, single oral OLA 100 mg/kg b.w. + REG 20 mg/kg b.w. (IREG+OLA, n = 8), mean ± SD): 3.01 ± 0.86 (28.6) h
AUC0–∞ ratio of OLA (study group/control group) ([5]; rats, OLA victim, REG perpetrator): 3.39 and 3.41
stable in plasma (long-term test) [3]: at least 181 days
time-dependent CYP inhibition (CYP3A4/5; OLA 10 μM): little effect
time-dependent CYP inhibition (CYP3A4/5; OLA 2–200 μM): time-dependent CYP3A4/5 inhibitor
IC50 (CYP3A4/5; reversible inhibition, OLA 17–500 μM): 119 µM
IC50 (BCRP): > 10 µM
concentration in the gastrointestinal tract ([6]; from a 400 mg dose): 3683 µM

CNC(=O)c1cc(Oc2ccc(NC(=O)Nc3ccc(Cl)c(C(F)(F)F)c3)c(F)c2)ccn1 [REG, regorafenib]
R1 value (CYP3A4): > 1.1
IC50 (P-glycoprotein; in vitro, read-out: IC50): ~2 µM
IC50 (P-glycoprotein; read-out: IC50 for P-gp inhibition): 2.2 µM
predicted effect on the AUCs of apixaban and rivaroxaban [7]: little or no effect
increase of AUC0–∞ of REG after OLA administration ([1]; IREG+OLA vs. IIREG control): 3.38 fold
increase of t0.5 of REG after OLA administration ([1]; IREG+OLA vs. IIREG control): 1.82 fold
increase of tmax of REG after OLA administration ([1]; IREG+OLA vs. IIREG control): 2.66 fold
reduction of kel of REG in the study group ([1]; IREG+OLA vs. IIREG control): 1.77 fold
t0.5 ([1]; REG, single oral REG 20 mg/kg b.w. + OLA 100 mg/kg b.w. (IREG+OLA, n = 8), mean ± SD): 11.65 ± 3.70 (31.7) h
Vd/F ([2]; REG): 2062.53 ± 615.85 (29.7) mL
tmax ([2]; REG): 5.8 ± 2.1 (36.9) h
stable in plasma (long-term test) [3]: ≥ 180 days
R1 value (CYP2B6): > 1.1
Ki (CYP3A): 20.7 µM
R1 value (CYP2C19): > 1.1
R1 value (CYP2C9): > 1.1
estimated duodenal concentration ([6]; 160 mg REG dose, assumed duodenal volume of 250 mL): 1.3 mM
R1 value (CYP2C8): > 1.1

CNC(=O)c1ccccc1Sc1ccc2c(/C=C/c3ccccn3)n[nH]c2c1 [axitinib]
predicted AUC increase for (S)- and/or (R)-warfarin [7]: ≤ 1.2 fold

OC(Cn1cncn1)(Cn1cncn1)c1ccc(F)cc1F [fluconazole]
increase in AUC of OLA ([8]; concomitant fluconazole): 121%
increase in Cmax of OLA ([8]; concomitant fluconazole): 14%

CCC(C)n1ncn(-c2ccc(N3CCN(c4ccc(OCC5COC(Cn6cncn6)(c6ccc(Cl)cc6Cl)O5)cc4)CC3)cc2)c1=O (stereo not drawn) [itraconazole]
increase in AUC of OLA ([8]; concomitant itraconazole): 170%
increase in Cmax of OLA ([8]; concomitant itraconazole): 42%

Cc1ccc(NC(=O)c2ccc(CN3CCN(C)CC3)cc2)cc1Nc1nc(-c2cccnc2)cs1 [masitinib]
Ki (CYP3A): 1.3 µM

CN(C)C(=N)N=C(N)N [metformin]
increase in metformin AUC [9]: 2.6 fold
increase in metformin Cmax [9]: 2.8 fold

COC(=O)c1ccc2c(c1)NC(=O)/C2=C(\Nc1ccc(N(C)C(=O)CN2CCN(C)CC2)cc1)c1ccccc1 [nintedanib]
predicted AUC increase for (S)- and/or (R)-warfarin [7]: ≤ 1.2 fold

Cc1cc(Nc2cc(N3CCN(C)CC3)nc(Sc3ccc(NC(=O)C4CC4)cc3)n2)[nH]n1 [tozasertib]
predicted AUC increase for (S)- and/or (R)-warfarin [7]: ≤ 1.2 fold

CC(=O)Nc1cccc(-n2c(=O)n(C3CC3)c(=O)c3c(Nc4ccc(I)cc4F)n(C)c(=O)c(C)c32)c1 [trametinib]
predicted AUC increase for (S)- and/or (R)-warfarin [7]: ≤ 1.2 fold

Clc1ccc(Nc2nnc(Cc3ccncc3)c3ccccc23)cc1 [vatalanib]
Ki (CYP3A): 0.2 µM
